Reference: article PMC9267128, “New 2-[(4-Amino-6-N-substituted-1,3,5-triazin-2-yl)methylthio]-N-(imidazolidin-2-ylidene)-4-chloro-5-methylbenzenesulfonamide Derivatives, Design, Synthesis and Anticancer Evaluation” (International Journal of Molecular Sciences, 2022)

Assays:
[1] = system: HCT-116 (colon cancer); test: MTT cell viability assay, HCT-116; assay type: cell-based, human; details: for IC50: MTT assay, 72 h of incubation; for Selectivity Index (SI) HCT-116: IC50 value toward HaCaT cells/IC50 value toward HCT-116
Method in brief: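 HCT-116 and HeLa cells in DMEM/10% FBS exposed 72 h to compounds over 1–100 µM. Viability by MTT (0.5 mg/mL, 2 h, 37 °C), formazan dissolved in DMSO and read at 550 nm; mean ± SD of at least three independent experiments.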

[2] = system: MCF-7 cells; test: Cell cycle analysis by flow cytometry (PI staining) in MCF-7 cells; assay type: cell-based, human; details: 48 h; for G0/G1 phase population of the cell cycle: MCF-7, 10 µM; for sub-G1 population of the cell cycle: MCF-7, 5, 10, 25 µM
Experimental: P53 controls cell proliferation through the regulation of the cell cycle. In order to determine p53-independent cell cycle arrest, the influence of selected compounds on the cell cycle distribution in MCF-7 cells was analyzed. Cells were treated with a concentration range of two selected compounds (140 and 48) for 48 h. Cell cycle distribution was analyzed with flow cytometry. […] Compound 140 at the lower concentration of 10 µM increased the G0/G1 population, whereas at the higher examined concentration of 25 µM, an increase in the G2/M phase of the cell cycle was observed.
Cell cycle distribution was analyzed with flow cytometry analysis with PI staining. MCF-7 cells were treated with compounds 48 and 140 (5, 10, 25 µM) for 48 h. Following treatment, the cells were collected and fixed in cold 70% ethanol for 24 h. The fixed cells were washed with PBS and incubated with 100 µg/mL RNAse (Invitrogen, Germany) and stained with 10 µg/mL PI (Invitrogen, Germany) for 30 min at RT. A total of 10^4 cells were examined with a FACSCalibur cytometer (BD) and data was analyzed with Flowing software (version 2.5).

[3] = system: SKOV3 (ovarian carcinoma cell line); test: MTT assay, mutant p53 ovarian cancer cells SKOV-3; assay type: cell-based; details: Homo sapiens, SK-OV-3, 72 h of incubation
Experimental: Thus, the ability of the selected compounds to exert cytotoxic activity toward cell lines harboring mutant p53 was examined. Compounds displaying a high selectivity index (Table 6) were selected for the analysis of their activity toward ovarian and breast cancer cells with wild-type p53 (A2780, MCF-7) and mutant p53 (SKOV-3, T47D).
Cell viability was examined using the MTT [3-(4,5-dimethylthiazol-2-yl)-2,5-diphenyltetrazolium bromide] assay. Cells were seeded in 96-well plates at a density of 3 × 10^3 cells/well and treated for 72 h with the tested compounds in the concentration range of 1–100 µM. Then, MTT (0.5 mg/mL) was added to the medium and cells were further incubated for 2 h at 37 °C. In the next stage, cells were lysed with DMSO and the absorbance of the formazan solution was measured at 550 nm with a plate reader (1420 multilabel counter, Victor, Jügesheim, Germany). The experiment was performed in triplicate. Values are expressed as the mean ± SD of at least three independent experiments. Cisplatin was used as a positive control.
Compounds 48, 62, 134, 138 and 140 were further examined toward MCF7 (breast cancer cell line, ATCC, HTB-22), T47D (breast cancer cell line, DSMZ ACC 739), A2780 (ovarian carcinoma cell line, ECACC, 93112519), and SKOV3 (ovarian carcinoma cell line, ATCC, HTB-77) cells. Cells were grown in Dulbecco’s Modified Eagle Medium (DMEM) supplemented with 10% fetal bovine serum (Thermo Fisher Scientific).

[4] = system: HaCaT (human keratinocyte cell line); test: MTT cell viability assay, non-cancerous HaCaT; assay type: cell-based; details: Homo sapiens, HaCaT, 72 h, 72 h of incubation, non-cancerous keratinocytes
Method in brief: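 Cells in DMEM with 10% FBS, 3 × 10^3 per well, exposed to compounds at 1–100 µM for 72 h at 37 °C. MTT at 0.5 mg/mL for 2 h, formazan dissolved in DMSO and read at 550 nm. Mean ± SD of at least three independent experiments, each in triplicate.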

SMILES | IC50 ([1]; Homo sapiens, HCT-116, 72 h) [µM] | Selectivity Index (SI) HCT-116 [1] | G0/G1 phase population of the cell cycle [2] | sub-G1 population of the cell cycle [2] | IC50 [3] [µM] | IC50 [4] [µM] | IC50 [1] [µM] | G2/M phase population of the cell cycle ([2]; MCF-7, 25 µM)
Cc1cc(S(=O)(=O)N=C2NCCN2Cc2ccccc2)c(SCc2nc(N)nc(N3CCc4ccccc43)n2)cc1Cl [Compound 48] | 6 ± 0.1 | 5.5 | significant increase | concentration-dependent increase | 8.1 ± 0.1 | 33 ± 1 | – | –
Cc1cc(S(=O)(=O)N=C2NCCN2Cc2ccc(C(F)(F)F)cc2)c(SCc2nc(N)nc(N3CCN(Cc4ccccc4)CC3)n2)cc1Cl [Compound 140] | < 6 | 4.4 | increased | concentration-dependent increase | 6.6 ± 0.1 | 22 ± 1 | 5 ± 0.2 | increase
